Results reported in patent publication US20100267774A1, “P38 MAP KINASE INHIBITORS” (CHROMA THERAPEUTICS LTD., priority 2007, published 2010).

Tests used:
[1] = biological target: T1, p38 MAP Kinase a (Homo sapiens, UniProt Q16539); assay: p38 MAP Kinase activity, radiometric filter-binding assay (Upstate); format: biochemical; conditions: IC50 range; read-out: Inhibitor activity versus p38 MAPKa
T1 construct: purchased Upstate (Dundee UK)
Procedure: The ability of compounds to inhibit p38 MAP a Kinase activity was measured in an assay performed by Upstate (Dundee UK). In a final reaction volume of 25 μL, p38 MAP Kinase a (5-10 mU) is incubated with 25 mM Tris pH 7.5, 0.002 mMEGTA, 0.33 mg/mL myelin basic protein, 10 mM MgAcetate and [g-33P-ATP] (specific activity approx. 500 cpm/pmol, concentration as required). The reaction is initiated by the addition of the MgATP mix. After incubation for 40 minutes at room temperature, the reaction is stopped by the addition of 5 μL of a 3% phosphoric acid solution. 10 μL of the reaction is then spotted onto a P30 filtermat and washed three times for 5 minutes in 75 mM phosphoric acid and once in methanol prior to drying and scintillation counting.
Duplicate data points are generated from a 1/3 log dilution series of a stock solution in DMSO. Nine dilutions steps are made from a top concentration of 10 μM, and a ‘no compound’ blank is included. The standard radiometric filter-binding assay is performed at an ATP concentration at, or close to, the Km. Data from scintillation counts are collected and subjected to free-fit analysis by Prism software. From the curve generated, the concentration giving 50% inhibition is determined and reported.

[2] = tested on: THP-1 TNFα release; assay: LPS-stimulation of THP-1 cells, TNF-α release by ELISA; format: cell-based; conditions: Homo sapiens, THP-1, 6 h; read-out: Inhibitor activity versus THP-1 TNFα release
Procedure: THP-1 cells were plated in 100 μl at a density of 4×10^4 cells/well in V-bottomed 96 well tissue culture treated plates and incubated at 37° C. in 5% CO2 for 16 hrs. 2 hrs after the addition of the inhibitor in 100 μl of tissue culture media, the cells were stimulated with LPS (E coli strain 005:B5, Sigma) at a final concentration of 1 μg/ml and incubated at 37° C. in 5% CO2 for 6 hrs. TNF-α levels were measured from cell-free supernatants by sandwich ELISA (R&D Systems #QTA00B).

T1 sequence (Q16539 whole entry): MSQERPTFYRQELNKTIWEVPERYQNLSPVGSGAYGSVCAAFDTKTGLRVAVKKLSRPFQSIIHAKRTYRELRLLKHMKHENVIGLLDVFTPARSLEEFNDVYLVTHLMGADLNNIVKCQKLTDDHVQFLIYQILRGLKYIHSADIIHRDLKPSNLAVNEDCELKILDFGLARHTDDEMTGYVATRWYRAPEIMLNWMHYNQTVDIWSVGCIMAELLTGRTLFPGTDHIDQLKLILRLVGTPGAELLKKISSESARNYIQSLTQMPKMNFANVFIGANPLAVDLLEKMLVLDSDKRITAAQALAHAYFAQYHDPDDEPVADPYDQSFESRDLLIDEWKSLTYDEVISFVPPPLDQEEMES

Compound | IC50 [1] | IC50 [2]
CC(C)[C@H](NCCc1ccc(-n2c(N)c(C(=O)c3ccc(F)cc3F)ccc2=O)cc1)C(=O)OC(C)(C)C [Example 6, tert-butyl N-[2-(4-{6-amino-5-[(2,4-difluorophenyl)carbonyl]-2-oxopyridin-1(2H)-yl}phenyl)ethyl]-L-valinate] | 0.1 to 1 µM | 0.1 to 1 µM
CC(C)(C)[C@H](NCCc1ccc(-n2c(N)c(C(=O)c3ccc(F)cc3F)ccc2=O)cc1)C(=O)OC1CCCC1 [Example 7, Cyclopentyl N-[2-(4-{6-amino-5-[(2,4-difluorophenyl)carbonyl]-2-oxopyridin-1(2H)-yl}phenyl)ethyl]-3-methyl-L-valinate] | 0.1 to 1 µM | > 1 µM
CC(C)(C)OC(=O)[C@@H](NCCc1ccc(-n2c(N)c(C(=O)c3ccc(F)cc3F)ccc2=O)cc1)C(C)(C)C [Example 8, tert-butyl N-[2-(4-{6-amino-5-[(2,4-difluorophenyl)carbonyl]-2-oxopyridin-1(2H)-yl}phenyl)ethyl]-3-methyl-L-valinate] | 0.1 to 1 µM | > 1 µM
CC(C)C[C@@H](NCCc1ccc(-n2c(N)c(C(=O)c3ccc(F)cc3F)ccc2=O)cc1)C(=O)OC1CCCC1 [Example 9, Cyclopentyl N-[2-(4-{6-amino-5-[(2,4-difluorophenyl)carbonyl]-2-oxopyridin-1(2H)-yl}phenyl)ethyl]-D-leucinate] | 0.1 to 1 µM | 0.1 to 1 µM
CC(C)(C)OC[C@H](NCCc1ccc(-n2c(N)c(C(=O)c3ccc(F)cc3F)ccc2=O)cc1)C(=O)OC(C)(C)C [Example 12, tert-butyl N-[2-(4-{6-amino-5-[(2,4-difluorophenyl)carbonyl]-2-oxopyridin-1(2H)-yl}phenyl)ethyl]-O-tert-butyl-L-serinate] | 0.1 to 1 µM | > 1 µM
C[C@@H](OC(C)(C)C)[C@H](NCCc1ccc(-n2c(N)c(C(=O)c3ccc(F)cc3F)ccc2=O)cc1)C(=O)OC1CCCC1 [Example 15, Cyclopentyl N-[2-(4-{6-amino-5-[(2,4-difluorophenyl)carbonyl]-2-oxopyridin-1(2H)-yl}phenyl)ethyl]-O-tert-butyl-L-threoninate] | 0.1 to 1 µM | > 1 µM
Nc1c(C(=O)c2ccc(F)cc2)ccc(=O)n1-c1c(F)cc(CCN[C@H](C(=O)OC2CCCC2)C2CCCCC2)cc1F [Example 28, Cyclopentyl (2S)-[(2-{4-[6-amino-5-(4-fluorobenzoyl)-2-oxopyridin-1(2H)-yl]-3,5-difluorophenyl}ethyl)amino](cyclohexyl)acetate] | 0.1 to 1 µM | 0.1 to 1 µM
CC(C)C[C@@H](NCCc1cc(F)c(-n2c(N)c(C(=O)c3ccc(F)cc3)ccc2=O)c(F)c1)C(=O)OC(C)(C)C [Example 30, tert-butyl N-(2-{4-[6-amino-5-(4-fluorobenzoyl)-2-oxopyridin-1(2H)-yl]-3,5-difluorophenyl}ethyl)-D-leucinate] | 0.1 to 1 µM | 0.1 to 1 µM
CC(C)(C)OC(=O)[C@@H](NCCc1cc(F)c(-n2c(N)c(C(=O)c3ccc(F)cc3F)ccc2=O)c(F)c1)c1ccccc1 [Example 35, tert-butyl (2S)-[(2-{4-[6-amino-5-(2,4-difluorobenzoyl)-2-oxopyridin-1(2H)-yl]-3,5-difluorophenyl}ethyl)amino](phenyl)acetate] |  | < 0.1 µM
Nc1c(C(=O)c2ccc(F)cc2F)ccc(=O)n1-c1c(F)cc(CCN[C@H](C(=O)OC2CCCC2)c2ccc(F)cc2)cc1F [Example 47, Cyclopentyl (2S)-{[2-(4-{6-amino-5-[(2,4-difluorophenyl)carbonyl]-2-oxopyridin-1(2H)-yl}-3,5-difluorophenyl)ethyl]amino}(4-fluorophenyl)ethanoate] |  | < 0.1 µM
CC(C)(C)OC(=O)[C@@H](NCCc1cc(F)c(-n2c(N)c(C(=O)c3ccc(F)cc3F)ccc2=O)c(F)c1)c1ccc(F)cc1 [Example 48, tert-butyl (2S)-{[2-(4-{6-amino-5-[(2,4-difluorophenyl)carbonyl]-2-oxopyridin-1(2H)-yl}-3,5-difluorophenyl)ethyl]amino}(4-fluorophenyl)ethanoate] |  | < 0.1 µM
CC(C)C[C@H](NCCc1ccc(-n2c(N)c(C(=O)c3ccc(F)cc3F)ccc2=O)s1)C(=O)O [Example 71, N-(2-{5-[6-amino-5-(2,4-difluorobenzoyl)-2-oxopyridin-1(2H)-yl]-2-thienyl}ethyl)-L-leucine] | 0.1 to 1 µM | 

Further lines, results first:

IC50 [1] | IC50 [2] | Compound
> 1 µM | < 0.1 µM | CC(C)C[C@H](NCCc1ccc(-n2c(N)c(C(=O)c3ccc(F)cc3F)ccc2=O)cc1)C(=O)O[C@@H]1CC(C)CC[C@H]1C(C)C (stereo in doubt) [Example 13, (1R,2S,5S)-2-Isopropyl-5-methylcyclohexyl N-(2-{4-[6-amino-5-(2,4-difluorobenzoyl)-2-oxopyridin-1(2H)-yl]phenyl}ethyl)-L-leucinate]
0.1 to 1 µM | < 0.1 µM | Nc1c(C(=O)c2ccc(F)cc2F)ccc(=O)n1-c1ccc(CCN[C@H](C(=O)OC2CCCC2)c2ccccc2)cc1 [Example 1]
0.1 to 1 µM | < 0.1 µM | CC(C)[C@H](NCCc1ccc(-n2c(N)c(C(=O)c3ccc(F)cc3F)ccc2=O)cc1)C(=O)OC1CCCC1 [Example 5, Cyclopentyl N-[2-(4-{6-amino-5-[(2,4-difluorophenyl)carbonyl]-2-oxopyridin-1(2H)-yl}phenyl)ethyl]-L-valinate]
0.1 to 1 µM | < 0.1 µM | CC(C)(C)OC[C@H](NCCc1ccc(-n2c(N)c(C(=O)c3ccc(F)cc3F)ccc2=O)cc1)C(=O)OC1CCCC1 [Example 11, Cyclopentyl N-[2-(4-{6-amino-5-[(2,4-difluorophenyl)carbonyl]-2-oxopyridin-1(2H)-yl}phenyl)ethyl]-O-tert-butyl-L-serinate]
< 0.1 µM | < 0.1 µM | C[C@@H](O)[C@H](NCCc1ccc(-n2c(N)c(C(=O)c3ccc(F)cc3F)ccc2=O)cc1)C(=O)OC1CCCC1 [Example 17, Cyclopentyl N-[2-(4-{6-amino-5-[(2,4-difluorophenyl)carbonyl]-2-oxopyridin-1(2H)-yl}phenyl)ethyl]-L-threoninate]
0.1 to 1 µM | < 0.1 µM | CC[C@H](C)[C@H](NCCc1ccc(-n2c(N)c(C(=O)c3ccc(F)cc3F)ccc2=O)cc1)C(=O)OC1CCCC1 [Example 18, Cyclopentyl N-[2-(4-{6-amino-5-[(2,4-difluorophenyl)carbonyl]-2-oxopyridin-1(2H)-yl}phenyl)ethyl]-L-isoleucinate]
< 0.1 µM | < 0.1 µM | C[C@H](NCCc1ccc(-n2c(N)c(C(=O)c3ccc(F)cc3F)ccc2=O)cc1)C(=O)OC1CCCC1 [Example 20, Cyclopentyl N-[2-(4-{6-amino-5-[(2,4-difluorophenyl)carbonyl]-2-oxopyridin-1(2H)-yl}phenyl)ethyl]-L-alaninate]
0.1 to 1 µM | < 0.1 µM | Nc1c(C(=O)c2ccc(F)cc2F)ccc(=O)n1-c1ccc(CCN[C@@H](Cc2ccccc2)C(=O)OC2CCCC2)cc1 [Example 22, Cyclopentyl N-[2-(4-{6-amino-5-[(2,4-difluorophenyl)carbonyl]-2-oxopyridin-1(2H)-yl}phenyl)ethyl]-L-phenylalaninate]
< 0.1 µM | < 0.1 µM | CC(C)C[C@H](NCCc1cc(F)c(-n2c(N)c(C(=O)c3ccc(F)cc3)ccc2=O)c(F)c1)C(=O)OC1CCCC1 [Example 24, Cyclopentyl N-(2-{4-[6-amino-5-(4-fluorobenzoyl)-2-oxopyridin-1(2H)-yl]-3,5-difluorophenyl}ethyl)-L-leucinate]
0.1 to 1 µM | < 0.1 µM | CC(C)C[C@H](NCCc1cc(F)c(-n2c(N)c(C(=O)c3ccc(F)cc3)ccc2=O)c(F)c1)C(=O)OC(C)(C)C [Example 25, tert-butyl N-(2-{4-[6-amino-5-(4-fluorobenzoyl)-2-oxopyridin-1(2H)-yl]-3,5-difluorophenyl}ethyl)-L-leucinate]
0.1 to 1 µM | < 0.1 µM | Nc1c(C(=O)c2ccc(F)cc2)ccc(=O)n1-c1c(F)cc(CCN[C@H](C(=O)OC2CCCC2)c2ccccc2)cc1F [Example 26, Cyclopentyl (2S)-[(2-{-4-[6-amino-5-(4-fluorobenzoyl)-2-oxopyridin-1(2H)-yl]-3,5-difluorophenyl}ethyl)amino](phenyl)acetate]
0.1 to 1 µM | < 0.1 µM | CC(C)(C)OC(=O)[C@@H](NCCc1cc(F)c(-n2c(N)c(C(=O)c3ccc(F)cc3)ccc2=O)c(F)c1)c1ccccc1 [Example 27, tert-butyl (2S)-[(2-{4-[6-amino-5-(4-fluorobenzoyl)-2-oxopyridin-1(2H)-yl]-3,5-difluorophenyl}ethyl)amino](phenyl)acetate]
0.1 to 1 µM | < 0.1 µM | CC(C)C[C@@H](NCCc1cc(F)c(-n2c(N)c(C(=O)c3ccc(F)cc3)ccc2=O)c(F)c1)C(=O)OC1CCCC1 [Example 29, Cyclopentyl N-(2-{4-[6-amino-5-(4-fluorobenzoyl)-2-oxopyridin-1(2H)-yl]-3,5-difluorophenyl}ethyl)-D-leucinate]
